In patent US4514410A, “Substituted 8-phenylisoxazolo[4,3-e][1,4]diazepin-5-ones” (Hoechst-Roussel Pharmaceuticals Inc., priority 1984, dated 1985):

Assays:
[1] = test system: extensor tonus in electroshocked mice; assay: Inhibition of extensor tonus induced by electroshock in mice (anticonvulsant); assay type: in vivo; conditions: Mus musculus, effective dose for 50% inhibition of extensor tonus
Source text: The anti-convulsant activity of some of the compounds of this invention expressed in terms of the effective dose for 50% inhibition of extensor tonus in mg/kg of body weight in electroshocked mice is given in Table I.

[2] = Average conflict response ratio (anxiolytic); assay type: in vivo; conditions: drug:control
Method: The compounds of the invention are also useful as anxiolytic agents due to their ability to reduce anxiety in mammals. Anxiolytic activity is measured as the average conflict response ratio (drug:control) at 40 mg/kg of body weight.

SMILES	ED50 [1] [mg/kg]	Average Conflict Response Ratio ([2]; at 40 mg/kg of body weight)	Average Conflict Response Ratio ([2]; @ 20 mg/kg (standard))
CC(=O)Nc1nnc(S(N)(=O)=O)s1 [acetazolamide, reference compound]	29.1	–	–
CC1=C2C(=C(c3ccccc3)N=CC(=O)N2C)NO1 [3,4-Dimethyl-8-phenylisoxazolo[4,3-e][1,4]diazepin-5-one]	25.1	31.7	–
CNC1=Nc2ccc(Cl)cc2C(c2ccccc2)=[N+]([O-])C1 [chlordiazepoxide, reference compound]	–	–	32.6
CC1=C2C(=C(c3ccccc3Cl)N=CC(=O)N2C)NO1 [3,4-Dimethyl-8-(2-chlorophenyl)isoxazolo[4,3-e][1,4]diazepin-5-one]	35.6	18.2	–
CC1=C2C(=C(c3ccccc3F)N=CC(=O)N2C)NO1 [3,4-Dimethyl-8-(2-fluorophenyl)isoxazolo[4,3-e][1,4]diazepin-5-one]	79.8	11.2	–
